In US12539292B2, “BRM targeting compounds and associated methods of use” (Arvinas Operations, Inc., priority 2018, dated 2026):

Target: T1, BRM (Homo sapiens, UniProt P51531)
T1 construct: In-Cell Western Screen of BRM Degradation in SW1573 Cells; endogenous in cells; host or cells: SW1573
Test: In-cell Western screen of BRM degradation in SW1573 cells (Dmax and DC50)
Type: cell-based
Details: BRM degradation, SW1573 cells; for DC50: read-out: DC50; for Dmax: tested at the top concentration of between 0.3 and 10 μM, read-out: Dmax (%) (% degraded)
Summary of the method: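 Near-infrared imaging on a LI-COR Odyssey (800 and 680 nm channels) quantifies BRM remaining in fixed SW1573 cells. Cells are dosed for 18-20 h at 0.1% final DMSO, and degradation is expressed as Dmax and DC50.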

T1 sequence (P51531 whole entry): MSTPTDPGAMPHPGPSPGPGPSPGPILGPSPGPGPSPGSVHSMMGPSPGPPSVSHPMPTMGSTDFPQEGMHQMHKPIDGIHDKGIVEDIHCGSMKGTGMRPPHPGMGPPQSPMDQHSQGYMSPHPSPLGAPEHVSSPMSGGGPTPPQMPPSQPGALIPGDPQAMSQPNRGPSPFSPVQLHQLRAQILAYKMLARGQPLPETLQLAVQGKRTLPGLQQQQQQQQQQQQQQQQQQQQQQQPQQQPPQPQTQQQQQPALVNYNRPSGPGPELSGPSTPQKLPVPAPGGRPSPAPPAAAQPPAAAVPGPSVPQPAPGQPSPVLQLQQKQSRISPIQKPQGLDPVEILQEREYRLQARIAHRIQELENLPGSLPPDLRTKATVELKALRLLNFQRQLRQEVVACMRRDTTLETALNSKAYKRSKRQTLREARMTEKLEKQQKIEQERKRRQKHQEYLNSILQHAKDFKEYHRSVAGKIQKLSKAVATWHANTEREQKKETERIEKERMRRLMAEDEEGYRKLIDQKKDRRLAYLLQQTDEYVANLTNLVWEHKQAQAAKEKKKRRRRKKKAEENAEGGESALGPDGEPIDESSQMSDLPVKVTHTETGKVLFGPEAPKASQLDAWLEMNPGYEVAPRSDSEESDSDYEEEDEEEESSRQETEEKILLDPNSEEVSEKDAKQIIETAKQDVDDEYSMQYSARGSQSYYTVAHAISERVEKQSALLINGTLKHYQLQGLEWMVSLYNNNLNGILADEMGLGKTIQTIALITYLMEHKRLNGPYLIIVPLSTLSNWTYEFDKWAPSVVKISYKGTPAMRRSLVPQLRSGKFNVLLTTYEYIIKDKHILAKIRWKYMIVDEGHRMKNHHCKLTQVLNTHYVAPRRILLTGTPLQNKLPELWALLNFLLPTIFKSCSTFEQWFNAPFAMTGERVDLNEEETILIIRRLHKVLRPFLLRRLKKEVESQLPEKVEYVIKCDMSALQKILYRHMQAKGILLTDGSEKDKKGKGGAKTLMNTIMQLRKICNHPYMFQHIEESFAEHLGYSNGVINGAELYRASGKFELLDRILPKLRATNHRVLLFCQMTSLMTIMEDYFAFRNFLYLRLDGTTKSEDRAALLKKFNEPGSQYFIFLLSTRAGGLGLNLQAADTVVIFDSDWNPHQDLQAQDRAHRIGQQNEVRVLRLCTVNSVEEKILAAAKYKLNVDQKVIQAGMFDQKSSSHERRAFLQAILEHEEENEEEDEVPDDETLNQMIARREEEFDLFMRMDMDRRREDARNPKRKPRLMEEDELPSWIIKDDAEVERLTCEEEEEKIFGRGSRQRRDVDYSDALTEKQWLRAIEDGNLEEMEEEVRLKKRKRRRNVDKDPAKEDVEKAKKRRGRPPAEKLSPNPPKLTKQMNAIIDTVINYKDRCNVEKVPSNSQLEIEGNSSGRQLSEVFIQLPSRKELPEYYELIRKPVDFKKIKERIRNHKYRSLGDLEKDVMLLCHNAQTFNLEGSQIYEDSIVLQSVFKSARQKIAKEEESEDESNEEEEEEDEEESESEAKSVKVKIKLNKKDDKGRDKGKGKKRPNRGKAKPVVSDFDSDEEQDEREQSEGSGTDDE

Structure (SMILES) | DC50 | Dmax
Cc1nccn1-c1ccc([C@H](C)NC(=O)[C@@H]2C[C@@H](O)CN2C(=O)[C@@H](c2cc(OCCN3CCC(O[C@H]4C[C@H](Oc5cc(N6C7CCC6CN(c6cc(-c8ccccc8O)nnc6N)C7)ccn5)C4)CC3)no2)C(C)C)cc1 [compound 178, (2S,4R)-1-((2R)-2-(3-(2-(4-((1r,3R)-3-((4-(3-(3-amino-6-(2-hydroxyphenyl)pyridazin-4-yl)-3,8-diazabicyclo[3.2.1]octan-8-yl)pyridin-2-yl)oxy)cyclobutoxy)piperidin-1-yl)ethoxy)isoxazol-5-yl)-3-methylbutanoyl)-4-hydroxy-N-((S)-1-(4-(2-methyl-1H-imidazol-1-yl)phenyl)ethyl)pyrrolidine-2-carboxamide] | < 2.5 nM | > 75%
Cc1ncsc1-c1ccc([C@H](C)NC(=O)[C@@H]2C[C@@H](O)CN2C(=O)[C@H](c2cc(OCCN3CCC(O[C@H]4C[C@H](Oc5cc(N6C7CCC6CN(c6cc(-c8ccccc8O)nnc6N)C7)ccn5)C4)CC3)no2)C(C)C)cn1 [compound 179, (2S,4R)-1-((2S)-2-(3-(2-(4-((1r,3S)-3-((4-(3-(3-amino-6-(2-hydroxyphenyl)pyridazin-4-yl)-3,8-diazabicyclo[3.2.1]octan-8-yl)pyridin-2-yl)oxy)cyclobutoxy)piperidin-1-yl)ethoxy)isoxazol-5-yl)-3-methylbutanoyl)-4-hydroxy-N-((S)-1-(6-(4-methylthiazol-5-yl)pyridin-3-yl)ethyl)pyrrolidine-2-carboxamide] | > 30 nM | 
Cc1ncsc1-c1ccc([C@H](C)NC(=O)[C@@H]2C[C@@H](O)CN2C(=O)[C@@H](c2cc(OCCN3CCC(O[C@H]4C[C@H](Oc5cc(N6C7CCC6CN(c6cc(-c8ccccc8O)nnc6N)C7)ccn5)C4)CC3)no2)C(C)C)cn1 [compound 180, (2S,4R)-1-((2R)-2-(3-(2-(4-((1r,3R)-3-((4-(3-(3-amino-6-(2-hydroxyphenyl)pyridazin-4-yl)-3,8-diazabicyclo[3.2.1]octan-8-yl)pyridin-2-yl)oxy)cyclobutoxy)piperidin-1-yl)ethoxy)isoxazol-5-yl)-3-methylbutanoyl)-4-hydroxy-N-((S)-1-(6-(4-methylthiazol-5-yl)pyridin-3-yl)ethyl)pyrrolidine-2-carboxamide] | < 2.5 nM | > 75%
Cc1ncsc1-c1ccc([C@H](C)NC(=O)[C@@H]2C[C@@H](O)CN2C(=O)[C@H](c2cc(OCCOCCOCCOCCn3cc(-c4cc(-c5ccccc5O)nnc4N)cn3)no2)C(C)C)cc1 [compound 181, (2S,4R)-1-((S)-2-(3-(2-(2-(2-(2-(4-(3-amino-6-(2-hydroxyphenyl)pyridazin-4-yl)-1H-pyrazol-1-yl)ethoxy)ethoxy)ethoxy)ethoxy)isoxazol-5-yl)-3-methylbutanoyl)-4-hydroxy-N-((S)-1-(4-(4-methylthiazol-5-yl)phenyl)ethyl)pyrrolidine-2-carboxamide] | > 30 nM | 
Cc1ncsc1-c1ccc([C@H](C)NC(=O)[C@@H]2C[C@@H](O)CN2C(=O)[C@@H](c2cc(OCCOCCOCCOCCn3cc(-c4cc(-c5ccccc5O)nnc4N)cn3)no2)C(C)C)cc1 [compound 182, (2S,4R)-1-((R)-2-(3-(2-(2-(2-(2-(4-(3-amino-6-(2-hydroxyphenyl)pyridazin-4-yl)-1H-pyrazol-1-yl)ethoxy)ethoxy)ethoxy)ethoxy)isoxazol-5-yl)-3-methylbutanoyl)-4-hydroxy-N-((S)-1-(4-(4-methylthiazol-5-yl)phenyl)ethyl)pyrrolidine-2-carboxamide] | 2.5 to 10 nM | > 75%
